Legend:
BS1-driven reporter = test: Transactivation of BS1-driven luciferase reporter in 293T cells; assay type: cell-based, human
From the text: (§1) An XbaI-EcoRV fragment containing the entire DMP1 coding sequence is subcloned by blunt end ligation into a SpeI-XbaI fragment of the Rc/RSV vector (Invitrogen, La Jolla Calif.) to enable DMP1 expression in mammalian cells. 6×concatamerized BS1, 8×concatamerized, BS2, or 7×concatamerized M3 oligonucleotides (FIG. 5B) are inserted into the XhoI-SmaI sites of pGL2 (Pfornega) 5′ to a minimal simian virus 40 (SV40) early promoter driving firefly luciferase gene expression. The latter “reporter” plasmid (1 μg) together with increasing amounts of pRc/RSV-DMP1 expression plasmid compensated by decreasing quantities of control pRc/RSV DNA (total of both=2.5 μg) were transfected into 293T cells (1.5×10^6 cells per 60 mm diameter culture dish) by calcium phosphate precipitation (7). Two days later, cells were harvested, washed three times with PBS, and lysed in 1 ml of 25 mM glycylglycine (Sigma), pH 7.8, 15 mM MgSO4, 4 mM EDTA, 1 mM DTT, and 1% Triton X-100. After clearing by centrifugation, 50 μl aliquots were assayed diluted to 350 μl using 15 mM potassium phosphate buffer, pH 7.8, containing 15 mM MgSO4, 4 mM EGTA, 2 mM ATP, 1 mM DTT, and 67 uM luciferin (Sigma). Total light emission was measured for duplicate samples during the initial 20 seconds after luciferin injection with an Optocomp I luminometer (MGM Instruments, Hamden Conn.). […]

[1] = test system: promoters lacking BS2 sites or containing Ets-specific M3 sites; test: Transactivation of reporters lacking BS2 sites or containing M3 sites in 293T cells; assay type: cell-based, human
From the text: as §1

GST-Ets2 fusion protein = target: T1, GST-Ets2 fusion protein (Homo sapiens, UniProt P15036); test: EMSA competition with bacterial GST-Ets2 fusion protein; assay type: binding; details: excess unlabeled oligonucleotide
T1 construct: made in house; host or cells: bacteria
T1 sequence (P15036 363-443 limits assumed): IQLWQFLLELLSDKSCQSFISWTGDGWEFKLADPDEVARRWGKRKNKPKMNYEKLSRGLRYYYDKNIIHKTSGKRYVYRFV
Protocol: Double-stranded oligonucleotides containing potential DMP1 binding sites (BS1 and BS2) and mutated versions (M1-M4) (FIG. 5B) are end-labeled with ^32P using the Klenow fragment of DNA polymerase and α-^32P-dATP (6000 Ci/mmol; Dupont NEN) (8). Nuclear extracts from mouse NIH-3T3 or CTLL cells are prepared with buffer containing 0.4 M NaCl (2). Mammalian cell extracts (15 μg protein) or Sf9 lysates (corresponding to 5×10^2 infected cells) containing ˜4 ng recombinant DMP1 are mixed with 3 ng of ^32P-labeled probe (1×10^5 cpm) in 15 ul Binding buffer containing 2.5 μg of poly(dI-dC) and 2.5 μg BSA and incubated at 4° C. for 30 minutes. For competition experiments, the indicated amounts of unlabeled oligonucleotides are added to the reactions before addition of the labeled probe. In some experiments, a bacterially produced GST-Ets2 fusion protein containing the complete Ets2 DNA-binding domain (10) is used in place of Sf9 extracts containing recombinant DMP1. Protein-DNA complexes are separated on nondenaturing 4% polyacrylamide gels as described (8). Where indicated, antiserum to DMP1 together with 2.5 μg salmon testis DNA (Sigma; used to reduce nonspecific DNA binding activity caused by serum addition) is preincubated with extracts for 30 minutes at 4° C. prior to initiation of binding reactions. Immune complexes are either removed by adsorption to protein A-Sepharose beads (immunodepletion experiments) or are allowed to remain (“supershift” experiments).
Using electrophoretic mobility shift assays (EMSA) performed after mixing a titrated excess (3 ng) of ^32P-end labeled BS1 probe with Sf9 lysates producing DMP1 (˜4 ng recombinant protein per reaction), a BS1-containing protein complex is detected that was competed with an excess of unlabeled BS1 oligonucleotide but not with mutant oligonucleotides M1 and M2 (FIG. 6A). […] More subtle mutations within this region may be tolerated, because high concentrations of M4 competed for BS1 binding to both Ets2 and DMP1 in subsequent studies (FIG. 5B and see below). DMP1 also binds a BS2 probe, and the binding is competed by excess BS2 or BS1 (FIG. 6B). In agreement with the site selection frequencies (FIG. 5A), binding of ^32P-BS1 under equivalent conditions was competed more efficiently by excess unlabeled BS1 than by BS2 (FIG. 6B). […] In agreement, Ets2 binding to BS1 could be competed with excess unlabeled BS1 and M3, but not by BS2 (FIG. 6C). Therefore, although both DMP1 and Ets2 can each bind to BS1 sequences, their exclusive interactions with BS2 and M3, respectively, help to distinguish DMP1 and Ets binding activities (summarized in FIG. 5B).

| competition for BS1 binding to Ets2 (GST-Ets2 fusion protein) | Substance | activation of the BS1-driven reporter (BS1-driven reporter) [fold] | transactivation [1] |
| --- | --- | --- | --- |
|  | DMP1: murine cyclin D-associated myb-like transcription factor, 761 amino acids, SEQ ID NO:1 | 7 | not observed |
| competed | M3: DMP1 deletion mutant (NcoI), amino acids 1-458 of SEQ ID NO:1 |  |  |
